Measurements taken from patent US12391691B2, “Synthesis of key intermediate of KRAS G12C inhibitor compound” (Amgen Inc., priority 2018, dated 2025).
Converted amounts (≈) assume the structure as drawn. Blank lines part the entries; values can stand above or below the molecule they belong to.

Key:
[1] = physchem; conditions: organic solvent or mixture, thermodynamic from solid
[2] = 5-day equilibrium solubility of M/P-Dione (ternary phase diagram); conditions: 2-MeTHF/n-heptane (1.4:1, v/v), RT, 5 days; for Solid XRPD: residual solid
[3] = #3: 20.2 mg M-Dione + 119.3 mg P-Dione
[4] = #4: 89.8 mg M-Dione + 90.3 mg P-Dione
[5] = #5: 121.1 mg M-Dione + 40.7 mg P-Dione
[6] = #6: 90.2 mg M-Dione + 19.5 mg P-Dione
[7] = #7: 41.6 mg M-Dione + 39.9 mg P-Dione
[8] = #8: 39.2 mg M-Dione + 120.3 mg P-Dione
[9] = #9: 119.1 mg M-Dione + 20.5 mg P-Dione

SMILES: O=C(O[C@H](C(=O)O)[C@H](OC(=O)c1ccccc1)C(=O)O)c1ccccc1 [DBTA, (+)-2,3-dibenzoyl-D-tartaric acid]
solubility at 5 days ([1]; 20 °C): 99.1 mg/mL (≈ 277 mM)
solubility at 5 days ([1]; 30 °C): 100 mg/mL (≈ 280 mM)
solubility at 5 days ([1]; 40 °C): 98.9 mg/mL (≈ 276 mM)
solubility at 5 days ([1]; 50 °C): 88 mg/mL (≈ 246 mM)
solubility at 5 days ([1]; 60 °C): 105 mg/mL (≈ 293 mM)
solubility at 5 days ([1]; 65 °C): 96.1 mg/mL (≈ 268 mM)
solubility at 5 days [1]: ~100 mg/mL (≈ 279 mM)

Solid de [2, 3]: −69.2%
Supernatant [M]/[P] [2, 3]: 0.2
Supernatant de [2, 3]: −73.6%
Solid XRPD [2, 3]: A + RD
Solid de [2, 4]: 0.6%
Supernatant [M]/[P] [2, 4]: 0.9
Supernatant de [2, 4]: −3.9%
Solid de [2, 5]: 27.0%
Supernatant [M]/[P] [2, 5]: 33.4
Supernatant de [2, 5]: 94.2%
Solid XRPD [2, 5]: A + RC
Solid de [2, 6]: 35.0%
Supernatant [M]/[P] [2, 6]: 37.6
Supernatant de [2, 6]: 94.8%
Solid XRPD [2, 6]: A + RC
Solid de [2, 7]: 1.4%
Supernatant [M]/[P] [2, 7]: 1.1
Supernatant de [2, 7]: 4.4%
Solid de [2, 8]: −39.1%
Supernatant [M]/[P] [2, 8]: 0.2
Supernatant de [2, 8]: −72.8%
Solid XRPD [2, 8]: A + RD
Solid de [2, 9]: 54.9%
Supernatant [M]/[P] [2, 9]: 34.5
Supernatant de [2, 9]: 94.4%
Solid XRPD [2, 9]: A + RC
SMILES: Cc1ccnc(C(C)C)c1-n1c(=O)[nH]c(=O)c2cc(F)c(Cl)nc21 [M/P-Dione]
